From ChEMBL document CHEMBL3525971 (Drug Metab Dispos, 2011)

Assays:
[1] = Tmax in castrated pig plasma withdrawn from portal vein at 10 mg/kg dosed via intrajejunal route by HPLC-UV; settings: male
[2] = Cmax in castrated pig plasma withdrawn from femoral vein at 10 mg/kg dosed via intrajejunal route by HPLC-UV; settings: male
[3] = Half life in castrated pig plasma withdrawn from portal vein at 10 mg/kg dosed via intrajejunal route by HPLC-UV; settings: male
[4] = AUC (0 to 6 hrs) in castrated pig plasma withdrawn from femoral vein dosed via intrajejunal route by UPLC-tandem mass spectrometry; settings: male
[5] = AUC (0 to 6 hrs) in castrated pig plasma withdrawn from portal vein dosed via intrajejunal route by UPLC-tandem mass spectrometry; settings: male
[6] = Half life in castrated pig plasma withdrawn from femoral vein at 10 mg/kg dosed via intrajejunal route by HPLC-UV; settings: male
[7] = Cmax in castrated pig plasma withdrawn from portal vein at 10 mg/kg dosed via intrajejunal route by HPLC-UV; settings: male
[8] = Tmax in castrated pig plasma withdrawn from femoral vein at 10 mg/kg dosed via intrajejunal route by HPLC-UV; settings: male
[9] = Biliary excretion in castrated pig assessed as unchanged drug level treated with finasteride at 0.8 mg/kg administered as intrajejunal dose 20 mins after ketoconazole administration measured during 6 hrs sampling by UPLC-tandem mass spectrometry; assay type: ADME, organism-based, Sus scrofa, Bile; set-up: dose 0.8 mg/kg; settings: in vivo, other
[10] = Apparent biliary clearance in castrated pig treated with finasteride at 0.8 mg/kg administered as intrajejunal dose 20 mins after ketoconazole administration by UPLC-tandem mass spectrometry; assay type: ADME, organism-based, Sus scrofa, Bile; set-up: dose 0.8 mg/kg; settings: in vivo
[11] = Biliary excretion in castrated pig assessed as unchanged drug level treated with finasteride at 0.8 mg/kg administered as intrajejunal dose measured during 6 hrs sampling by UPLC-tandem mass spectrometry; assay type: ADME, organism-based, Sus scrofa, Bile; set-up: dose 0.8 mg/kg; settings: in vivo, other
[12] = Drug excretion in castrated pig urine assessed as unchanged drug level treated with finasteride at 0.8 mg/kg administered as intrajejunal dose measured during 6 hrs sampling by UPLC-tandem mass spectrometry; assay type: ADME, organism-based, Sus scrofa; set-up: dose 0.8 mg/kg; settings: in vivo, other
[13] = Apparent biliary clearance in castrated pig treated with finasteride at 0.8 mg/kg administered as intrajejunal dose by UPLC-tandem mass spectrometry; assay type: ADME, organism-based, Sus scrofa, Bile; set-up: dose 0.8 mg/kg; settings: in vivo
[14] = Apparent biliary clearance in castrated pig treated with finasteride at 0.2 mg/kg, iv by UPLC-tandem mass spectrometry; assay type: ADME, organism-based, Sus scrofa, Bile; set-up: dose 0.2 mg/kg, route intravenous; settings: in vivo
[15] = Drug excretion in castrated pig urine assessed as unchanged drug level treated with finasteride at 0.2 mg/kg, iv measured during 6 hrs sampling by UPLC-tandem mass spectrometry; assay type: ADME, organism-based, Sus scrofa; set-up: dose 0.2 mg/kg, route intravenous; settings: in vivo
[16] = Drug excretion in castrated pig urine assessed as unchanged drug level treated with finasteride at 0.8 mg/kg administered as intrajejunal dose 20 mins after ketoconazole administration measured during 6 hrs sampling by UPLC-tandem mass spectrometry; assay type: ADME, organism-based, Sus scrofa; set-up: dose 0.8 mg/kg; settings: in vivo, other
[17] = Biliary excretion in castrated pig assessed as unchanged drug level treated with finasteride at 0.2 mg/kg, iv measured during 6 hrs sampling by UPLC-tandem mass spectrometry; assay type: ADME, organism-based, Sus scrofa, Bile; set-up: dose 0.2 mg/kg, route intravenous; settings: in vivo

CL(app) [10]	CL(app) [13]	CL(app) [14]	SMILES	Tmax [1]	Cmax [2]	half-life [3]	AUC(0-t) at 6 h [4]	AUC(0-t) at 6 h [5]	half-life [6]	Cmax [7]	Tmax [8]	Ae [9]	Ae [11]	Ae [12]	Ae [15]	Ae [16]	Ae [17]
–	–	–	CC(=O)N1CCN(c2ccc(OCC3COC(Cn4ccnc4)(c4ccc(Cl)cc4Cl)O3)cc2)CC1 (configuration not stated) [KETOCONAZOLE]	0.7 h	3 µM	3.1 h	13 µM·h	22 µM·h	4.1 h	9 µM	1.8 h	–	–	–	–	–	–
1.2 mL/min/kg	2.4 mL/min/kg	3.6 mL/min/kg	CC(C)(NC(=O)[C@H]1CC[C@H]2[C@@H]3CC[C@H]4NC(=O)C=C[C@]4(C)[C@H]3CC[C@]12C)C(=O)O	–	–	–	–	–	–	–	–	0.7 µmol	1.2 µmol	8.5 µmol	1.2 µmol	3.4 µmol	0.6 µmol
